{"source": "patent US5603963A", "about": "“Method for the treatment of retroviral diseases such as acquired immune deficiency syndrome utilizing (pseudo)halogen complexes of gold(1)” (priority 1994, dated 1997)", "key": {"AIDS": {"test_system": "AIDS", "details": "cited from earlier work"}, "HIV": {"test_system": "HIV", "details": "CEM cells; concentrations in the 6ppm range; cited from earlier work"}, "[1]": {"test_system": "HIV reverse transcriptase", "details": "in vitro; cited from earlier work"}, "cells": {"test_system": "cells", "details": "cited from earlier work"}, "[2]": {"set-up": "species or system patients", "details": "human, in vivo", "text": "A powerful means to attack the AIDS virus (HIV) would be to find a specific inhibitor of the viral reverse transcriptase. If this enzyme cannot function, viral replication cannot take place. The significant aspect of the viral life cycle which must be considered is that the viral replication takes place intracellularly. Thus, agents which may work in a test tube to inhibit the enzyme activity will have no effect on the virus itself unless the agent is capable of entering cells and developing an effective intracellular concentration."}}, "note": "Like-named read-outs stand apart in the source and are kept apart here.", "data": [{"compound": "Cc1cn([C@H]2C[C@H](N=[N+]=[N-])[C@@H](CO)O2)c(=O)[nH]c1=O", "note": "[AZT, azidothymidine]", "values": [{"measurement": "side effects", "setting": "AIDS; AIDS", "value": "significant side effects"}]}, {"compound": "O=c1[nH]cnc2c1ncn2[C@H]1CC[C@@H](CO)O1", "note": "[DDI, dideoxyinosine]", "values": [{"measurement": "side effects", "setting": "AIDS; in vivo", "value": "significant side effects"}]}, {"compound": "bis(thioglucose)gold(I)", "values": [{"measurement": "inhibition of the infectivity of HIV", "setting": "HIV", "value": "inhibit the infectivity of HIV"}, {"measurement": "inhibition of HIV reverse transcriptase", "setting": "[1]", "value": "does inhibit HIV reverse transcriptase"}]}, {"compound": "gold(I) thioglucose [Solganol]", "values": [{"measurement": "ability to enter cells", "setting": "cells", "value": "inherently unable to enter cells"}, {"measurement": "levels of gold inside cells (in words)", "setting": "[2]", "value": "well below the levels required to inhibit the enzyme in vitro"}, {"measurement": "levels of gold inside cells relative to amount found in blood", "setting": "[2]", "value": "less than 5%"}, {"measurement": "inhibition of HIV reverse transcriptase", "setting": "[1]", "value": "inhibit HIV reverse transcriptase"}]}, {"compound": "sodium gold(I) thiomalate [Myochrysine]", "values": [{"measurement": "total gold in Cell lysate", "setting": "red blood cells", "value": 6, "unit": "%"}, {"measurement": "total gold in Membranes", "setting": "red blood cells", "value": 10, "unit": "%"}, {"measurement": "total gold in Supernatant", "setting": "red blood cells", "value": 84, "unit": "%"}, {"measurement": "gold remaining in the incubation medium", "setting": "whole blood", "value": "~90", "unit": "%"}, {"measurement": "total gold found in the cell lysate", "setting": "whole blood", "value": "about 5%"}, {"measurement": "total gold in Cell lysate", "setting": "whole blood", "value": 4, "unit": "%"}, {"measurement": "total gold in Membranes", "setting": "whole blood", "value": 6, "unit": "%"}, {"measurement": "total gold in Supernatant", "setting": "whole blood", "value": 90, "unit": "%"}]}]}
